Earlier results in patent US20190290635A1, “METHODS OF TREATING BRAIN CANCER USING AGENTS THAT ALTER ACTIVITY OF A METABOLIC PATHWAY” (Clear Creek Bio, Inc., priority 2018, published 2019).

Tests used:
[1] = 43 patients; patient with papillary carcinoma of the thyroid; cited from earlier work
[2] = 650 mg/m^2 brequinar (days 1, 8 and 15) with 75 mg/m^2 cisplatin (day 1); cited from earlier work

SMILES	tumor response observed [1]	modification of individual drug pharmacokinetic parameters in combination with cisplatin [2]
Cc1c(-c2ccc(-c3ccccc3F)cc2)nc2ccc(F)cc2c1C(=O)O [Brequinar sodium]	One mixed response	
Cc1c(-c2ccc(-c3ccccc3F)cc2)nc2ccc(F)cc2c1C(=O)O [Brequinar, 6-fluoro-2-(2′-fluoro-1,1′ biphenyl-4-yl)-3-methyl-4-quinoline carboxylic acid]		without significant modifications
